# According to patent publication US20240109885A1, “2,3-DIHYDRO-1H-PYRROLO[3,2-B]PYRIDINE DERIVATIVE, PREPARATION METHOD THEREFOR, AND APPLICATION THEREOF” (Abbisko Therapeutics Co., Ltd, priority 2020, published 2024):
# Assays:
# Type in all cases: cell-based
# [1] = molecular target: Ba/F3 EGFR-D770-N771ins_SVD (Homo sapiens, UniProt P00533, DUP768-770, cells depend on it); test: Cell proliferation assay (CellTiter-Glo), Ba/F3 EGFR-D770-N771ins_SVD cells; conditions: 72 hrs, CTG assay, * = average of multiple measurements, read-out: Ba/F3 EGFR-D770-N771ins_SVD (nM), IC50 of cell proliferation
# How it was run: (§1)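 Cells seeded overnight, then treated in triplicate with 9 concentrations (3.16-fold dilutions; 0.1% DMSO final) for 72 h at 37 °C, 5% CO2. Viability by CellTiter-Glo luminescence, normalised to cell and medium controls; IC50 (nM) from nonlinear sigmoidal fit.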
# [2] = molecular target: Ba/F3 EGFR-V769_D770insASV (Homo sapiens, UniProt P00533, DUP767-769, cells depend on it); test: Cell proliferation assay (CellTiter-Glo), Ba/F3 EGFR-V769_D770insASV cells; conditions: 72 hrs, CTG assay, * = average of multiple measurements, read-out: Ba/F3 EGFR-V769_D770insASV (nM), IC50 of cell proliferation
# How it was run: as §1
# A431 (EGFR-WT) = test: Cell proliferation assay (CellTiter-Glo), A431 cells; conditions: Homo sapiens, A-431, 72 hrs, CTG assay, * = average of multiple measurements
# How it was run: as §1
# Ba/F3 EGFR-V769_D770insASV, sequence (P00533 with tags, fused parts or gaps DUP767-769): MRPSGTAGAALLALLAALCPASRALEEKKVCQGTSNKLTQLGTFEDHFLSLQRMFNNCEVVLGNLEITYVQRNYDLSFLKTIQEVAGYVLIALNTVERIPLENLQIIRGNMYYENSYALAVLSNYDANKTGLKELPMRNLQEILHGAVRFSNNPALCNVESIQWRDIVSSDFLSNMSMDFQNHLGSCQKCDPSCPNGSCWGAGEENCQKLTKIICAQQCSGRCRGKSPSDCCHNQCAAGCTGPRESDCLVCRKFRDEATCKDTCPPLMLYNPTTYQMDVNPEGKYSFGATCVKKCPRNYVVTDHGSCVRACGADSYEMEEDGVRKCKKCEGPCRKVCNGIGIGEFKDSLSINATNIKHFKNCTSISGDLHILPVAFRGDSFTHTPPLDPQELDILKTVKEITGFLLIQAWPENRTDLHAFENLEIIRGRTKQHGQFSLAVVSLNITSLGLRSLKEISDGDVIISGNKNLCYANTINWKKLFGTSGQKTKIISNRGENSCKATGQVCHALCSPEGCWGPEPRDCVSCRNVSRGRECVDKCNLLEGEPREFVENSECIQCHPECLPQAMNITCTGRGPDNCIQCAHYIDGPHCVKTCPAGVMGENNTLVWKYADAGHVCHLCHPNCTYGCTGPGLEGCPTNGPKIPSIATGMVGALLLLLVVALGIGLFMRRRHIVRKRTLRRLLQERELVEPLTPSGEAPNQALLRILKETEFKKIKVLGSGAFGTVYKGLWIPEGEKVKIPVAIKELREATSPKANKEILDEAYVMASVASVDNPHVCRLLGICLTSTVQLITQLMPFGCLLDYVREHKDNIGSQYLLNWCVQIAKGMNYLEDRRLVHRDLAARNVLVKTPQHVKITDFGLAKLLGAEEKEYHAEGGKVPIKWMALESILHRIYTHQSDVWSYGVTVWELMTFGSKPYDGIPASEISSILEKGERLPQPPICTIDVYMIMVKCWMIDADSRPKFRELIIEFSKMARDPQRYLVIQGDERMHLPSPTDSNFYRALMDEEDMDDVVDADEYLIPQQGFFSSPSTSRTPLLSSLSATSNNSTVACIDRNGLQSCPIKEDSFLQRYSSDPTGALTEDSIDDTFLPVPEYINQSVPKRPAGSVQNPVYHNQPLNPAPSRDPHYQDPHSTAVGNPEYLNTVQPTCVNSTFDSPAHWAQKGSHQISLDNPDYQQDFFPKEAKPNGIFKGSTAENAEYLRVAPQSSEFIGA
# Ba/F3 EGFR-D770-N771ins_SVD, sequence (P00533 with tags, fused parts or gaps DUP768-770): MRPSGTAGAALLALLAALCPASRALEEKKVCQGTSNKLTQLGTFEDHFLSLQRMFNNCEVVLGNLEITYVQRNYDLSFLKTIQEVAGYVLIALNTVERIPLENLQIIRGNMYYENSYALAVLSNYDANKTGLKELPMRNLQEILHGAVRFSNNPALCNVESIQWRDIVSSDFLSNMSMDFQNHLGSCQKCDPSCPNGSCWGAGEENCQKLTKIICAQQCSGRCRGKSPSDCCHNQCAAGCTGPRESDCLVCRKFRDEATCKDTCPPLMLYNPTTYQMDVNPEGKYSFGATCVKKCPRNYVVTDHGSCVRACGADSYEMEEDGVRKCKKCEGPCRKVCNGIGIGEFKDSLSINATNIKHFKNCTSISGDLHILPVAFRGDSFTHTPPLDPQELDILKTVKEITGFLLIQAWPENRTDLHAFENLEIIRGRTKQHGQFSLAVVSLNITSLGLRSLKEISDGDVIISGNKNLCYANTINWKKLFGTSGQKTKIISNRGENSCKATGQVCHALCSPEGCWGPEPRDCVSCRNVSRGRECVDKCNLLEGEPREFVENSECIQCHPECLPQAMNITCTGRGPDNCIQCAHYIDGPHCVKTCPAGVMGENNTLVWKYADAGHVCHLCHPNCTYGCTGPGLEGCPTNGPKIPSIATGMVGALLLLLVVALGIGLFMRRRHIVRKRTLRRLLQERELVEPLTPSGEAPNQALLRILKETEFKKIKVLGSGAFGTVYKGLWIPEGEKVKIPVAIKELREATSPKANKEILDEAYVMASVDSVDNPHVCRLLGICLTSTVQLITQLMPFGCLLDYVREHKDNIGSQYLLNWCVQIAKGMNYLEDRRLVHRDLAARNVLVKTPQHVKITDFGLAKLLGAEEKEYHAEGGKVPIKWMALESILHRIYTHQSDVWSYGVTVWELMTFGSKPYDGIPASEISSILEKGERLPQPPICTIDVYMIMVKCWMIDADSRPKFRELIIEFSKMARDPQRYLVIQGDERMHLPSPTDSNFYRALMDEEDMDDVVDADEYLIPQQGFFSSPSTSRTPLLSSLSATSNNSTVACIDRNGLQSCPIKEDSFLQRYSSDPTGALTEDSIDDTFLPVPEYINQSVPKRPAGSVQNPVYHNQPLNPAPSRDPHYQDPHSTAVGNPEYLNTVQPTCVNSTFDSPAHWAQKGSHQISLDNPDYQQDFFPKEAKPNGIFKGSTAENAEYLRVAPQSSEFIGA
Compound,GI50 [1] [nM],GI50 [2] [nM],IC50 (A431 (EGFR-WT)) [nM]
"C=CC(=O)Nc1cc(Nc2cc(N3CC(C)(C)c4nc(C)ccc43)ncn2)c(OC)cc1N1CCC[C@@H]1CN(C)C [Example 13, (R)-N-(5-((6-(3,3,5-trimethyl-2,3-dihydro-1H-pyrrolo[3,2-b]pyridin-1-yl)pyrimidin-4-yl)amino)-2-(2-((dimethylamino)methyl)pyrrolidin-1-yl)-4-methoxyphenyl)acrylamide]",42.1,87.4,101
"C=CC(=O)Nc1cc(Nc2nccc(N3CC(C)(C)c4nc(C)ccc43)n2)c(OC)cc1N(C)CCN(C)C [Example 5, N-(2-((2-(dimethylamino)ethyl) (methyl)amino)-4-methoxy-5-((4-(3,3,5-trimethyl-2,3-dihydro-1H-pyrrolo[3,2-b]pyridin-1-yl)pyrimidin-2-yl)amino)phenyl)acrylamide]",26.6,31.4,411
"C=CC(=O)Nc1cc(Nc2ncnc(N3CC(C)(C)c4nc(C)ccc43)n2)c(OC)cc1N(C)CCN(C)C [Example 8, N-(2-((2-(dimethylamino)ethyl) (methyl)amino)-4-methoxy-5-((4-(3,3,5-trimethyl-2,3-dihydro-1H-pyrrolo[3,2-b]pyridin-1-yl)-1,3,5-triazin-2-yl)amino)phenyl)acrylamide]",12.5,17.9,71.8
"C=CC(=O)Nc1cc(Nc2cc(N3CC(C)(C)c4nc(C)c(C)cc43)ncn2)c(OC)cc1N(C)CCN(C)C [Example 28, N-(2-((2-(dimethylamino)ethyl) (methyl)amino)-4-methoxy-5-((6-(3,3,5,6-tetramethyl-2,3-dihydro-1H-pyrrolo[3,2-b]pyridin-1-yl)pyrimidin-4-yl)amino)phenyl)acrylamide]",28.9,37.1,26.3
"C=CC(=O)Nc1cc(Nc2nccc(N3CC(C)(C)c4nc(-c5cnn(C)c5)ccc43)n2)c(OC)cc1N(C)CCN(C)C [Example 50, N-(5-((4-(3,3-dimethyl-5-(1-methyl-1H-pyrazol-4-yl)-2,3-dihydro-1H-pyrrolo[3,2-b]pyridin-1-yl)pyrimidin-2-yl)amino)-2-((2-(dimethylamino)ethyl)(methyl)amino)-4-methoxyphenyl)acrylamide]",14.6,32.1,82.4
"C=CC(=O)Nc1cc(Nc2nccc(N3CC4(CCC4)c4ncccc43)n2)c(OC)cc1N(C)CCN(C)C [Example 63, N-(2-((2-(dimethylamino)ethyl) (methyl)amino)-4-methoxy-5-((4-(spiro[cyclobutane-1,3′-pyrrolo [3,2-b]pyridin]-1′(2′H)-yl)pyrimidin-2-yl)amino)phenyl)acrylamide]",39.6,116,532
"C=CC(=O)Nc1cc(Nc2nccc(N3CC(C)(C)c4nc(-n5ccnc5)ccc43)n2)c(OC)cc1N(C)CCN(C)C [Example 51, N-(5-((4-(5-(1H-imidazole-1-yl)-3,3-dimethyl-2,3-dihydro-1H-pyrrolo[3,2-b]pyridin-1-yl)pyrimidin-2-yl)amino)-2-((2-(dimethylamino)ethyl)(methyl)amino)-4-methoxyphenyl)acrylamide]",34.8,123,620
"C=CC(=O)Nc1cc(Nc2nccc(N3CC4(CCCC4)c4nc(C)ccc43)n2)c(OC(F)F)cc1N(C)CCN(C)C [Example 39, N-(4-(difluoromethoxy)-2-((2-(dimethylamino)ethyl)(methyl)amino)-5-((4-(5′-methylspiro[cyclo-pentane-1,3′-pyrrolo[3,2-b]pyridin]-1′(2′H)-yl)pyrimidin-2-yl)amino)phenyl)acrylamide]",24.9,35.8,396
"C=CC(=O)Nc1cc(Nc2ncnc(N3CC4(CCC4)c4ncccc43)n2)c(OC)cc1N(C)CCN(C)C [Example 55, N-(2-((2-(dimethylamino)ethyl) (methyl)amino)-4-methoxy-5-((4-(spiro[cyclobutane-1,3′-pyrrolo[3,2-b]pyridin]-1′(2′H)-yl)-1,3,5-triazin-2-yl)amino)phenyl)acrylamide]",23.8,47,312
